In the test the test system is total glutathione levels. The experiment in a line: Total glutathione in striatum and liver of rats after CHX depletion. Type of test: in vivo, Sprague-Dawley rats. The following applies: 400 mg/kg i.p. 90 minutes after CHX 75 mg/kg; killed 1 hour after treatment. The procedure: Male Sprague-Dawley rats aged nine weeks and weighing an average of 390 g, were used in the study. Animals were maintained on a twelve hour light-dark cycle with water and food ad libitum. Two animals were housed per cage with room temperature maintained at 22° C.
All pharmacological agents were administered by intraperitoneal injection (i.p.) in a volume of 1 ml/kg, except where otherwise stated. All agents were prepared using saline as a diluent. Brain GSH depletion was performed using cyclohexene-1-one (CHX), administered at 75 mg/kg. Animals were returned to their cage for 90 minutes prior to administration of N-acetyl cysteine (NAC) or N-acetyl cysteine amide (NACA or “AD4”). Animals were killed by decapitation 1 hour after NACA or NAC treatment.
Frontal cortex, striatum and liver samples were immediately excised on ice, weighed and sonicated in SSA buffer (5% sulfosalicylic acid in 100 mM disodium hydrogen orthophosphate, 100 mM sodium dihydrogen orthophosphate and 1 mM EDTA, pH 7.5, 5 mL/g wet tissue). The samples were subsequently centrifuged (22×10^3 g for 10 minutes, 4° C.) and the […] was taken and frozen at −80° C. until analysed.
Total glutathione levels (μmol GSH/gram tissue) were determined in all samples. Samples were assayed according to Baker et al. (1990). Reduced glutathione standards ranging from 0 to 320 ρmol of GSH in 50 μL were prepared in a background buffer identical to the samples (SSA buffer) and then treated in parallel with samples. 50 μl of sample or standard was placed on a 96-well microtiter plate with 100 μL of assay reagent (final concentration in well; 0.15 mM DTNB, 0.2 mM NADPH, 1.0 U glutathione reductase/mL). Plates were assayed for a total of 2 minutes at 414 nm using a Multiskan MCC/340 MK II plate reader and Genesis V3.05 computer software. All chemicals were purchased from Sigma-Aldrich. Statistical evaluation of the data was conducted using analysis of variance (ANOVA).

Structures are written as SMILES.

On to `CC(=O)N[C@@H](CS)C(=O)O` [NAC, N-acetyl cysteine], for which the “Total glutathione levels in the brain striatum after CHX depletion” value is recorded as “rescue” and the “Total glutathione levels in the liver after CHX depletion” value is “rescue”.
